Data: patent US20080206219A1, “Novel Indications for Transforming Growth Factor-Beta Regulators” (THE REGENCTS OF THE UNIVERSITY OF CALIFORNIA, priority 2003, published 2008)
“Also recorded” adds a separate entry of the source.

What was measured:
[1] = system: gelatinolytic activity in Collα1(I)r/r skin; test: Substrate conversion assay (DQ-gelatin) on skin lysates; format: biochemical, mice; details: inhibitor at 4 mM
Description: Shaved back skin pieces from 5-8 week old mice were pulverized in liquid N2 and solubilized in 500 μl buffer (0.25 M sucrose, 5 mM Tris, pH 7.5, protease Inhibitor cocktail mix without EDTA (Roche), 0.25 mg/ml Pefablock (Roche), 0.01 mg/ml Aprotinin (Sigma-Aldrich) using a 2 ml tissue grinder (Fisher) and centrifuged at 4° C. 800×g for 15-min. Supernatants were centrifuged for 1-hr at 100,000×g at 4° C. Supernatants were stored at −80° C., pellets were resuspended in 100 μl solubilization buffer, homogenized by sonication at 4° C., and stored at −80° C. Protein concentration was determined with the BioRad DC Protein assay reagent according to manufacturers instructions (BioRad). Prior to assay, lysate buffers were exchanged using Micro Bio-spin chromatography columns (Bio-gelP-6; BioRad) to 10 mM Tris pH 7.5 according to the manufacturers specifications. […] Reactions were incubated up to 5-hr at 37° C. and fluorescence measured (excitation 485 nm, emission 530 nm) every 3-min on a Microplate Spectrofluorometer (SpectraMax Gemini EM, Molecular Devices) and quantified using SoftMax Pro 4.1 software. […]

[2] = system: Collα1(I)+/+ and Collα1(I)r/r mice; test: Miles assay: Evans blue leakage in ears after mustard oil challenge; format: in vivo; details: for Evans blue dye leakage into vascular stroma after MO, GM6001-treated versus vehicle-treated mice: GM6001 i.p. 100 mg/kg daily for 3-days before MO challenge
Description: Evans blue (EB) dye (30 mg/kg in 100 μl PBS; Sigma-Aldrich) was injected into the tail vein of 7- to 8-week-old mice. In some experiments, after 1-min, 30 μl of 5% mustard oil (Phenyl Isothiocyanate, 98%, Sigma-Aldrich) diluted in mineral oil (Sigma-Aldrich) was applied to the dorsal and ventral surfaces of the ear; the application process was repeated 15 minutes later. Isoflurane anesthesized mice were photographed 30 minutes after injection of EB dye. Anesthesized mice were then cardiac perfused, ears removed, blotted dry and weighed. EB dye was extracted from ears in 1 ml of formamide overnight to 48-hrs at 60° C. and measured spectrophotometrically at 610 nm in a SpectraMax 340™ (Molecular Devices). Data are expressed as mean±SEM. Comparisons of the amounts of dye extravasation were evaluated by Mann-Whitney statistical test with p values less than 0.05 considered significant. In some experiments, 5-min prior to the infusion of EB dye, shaved 5-to 7-week old mice were injected (10 μl) intradermally with one of the following agents at the concentrations shown (VEGF120, R&D Systems; VEGF164, Chemicon; histamine, Calbiochem; serotonin, Sigma-Aldrich) and the appearance of a blue spot monitored for 30 minutes at which time mice were euthanized, cardiac perfused, photographed and the area of skin surrounding the site of injection excised (˜5 mm^2), photographed and EB dye extracted as above. […]
The vascular physiology in a mouse model of human Sc, e.g., Collα1(I)^r/r mice, was studied to determine whether an altered balance between collagen synthesis, accumulation and/or degradation was a rate-limiting factor for efficient vascular physiology prior to histopathologic appearance of Sc disease. The ears of Collα1(I)^r/r versus littermate control (Collα1(I)^+/+) mice were treated with vehicle alone (mineral oil; FIG. 1A) or mustard oil (MO; 5% in mineral oil: right ear), an inflammatory agent that induces plasma leakage, vasodilation of capillaries and inflammation in the skin (FIG. 1A). Evans blue dye (30 mg/kg in 100 μl PBS; Sigma Chemical Co., St. Louis, Mo., USA) was injected into the tail vein of the mice. After 1 minute, 5% mustard oil (Phenyl Isothiocyanate, 98%, Sigma) diluted in mineral oil (Sigma) was applied to the dorsal and ventral surfaces of the ear with a cotton swab; the application process was repeated 15 minutes later. […] Isoflurane anesthesized mice were photographed 30 minutes after injection of Evans blue dye. Anesthesized mice were then cardiac perfused, ears removed, blotted dry, and weighed. The Evans blue dye was extracted from the ears with 1 ml of formamide overnight at 60° C. and measured spectrophotometrically at 610 nm in a SpectraMax 340™ (Molecular Devices). Data are expressed as mean±SEM. Comparisons of the amounts of dye extravasation were evaluated by the Fisher's t test with p values less than 0.05 considered significant.
Vascular permeability (VP) responses in control and Collα1(I)^r/r mice treated with a broad spectrum synthetic metalloproteinase inhibitor (MPI), e.g., GM6001 were examined. GM6001 (N-[(2R)-2(hydroxyamidocarbonylmethyl)-4-methylpantanoyl]-L-tryptophan ethylamide), a broad, class-specific metalloproteinase inhibitor (Chemicon, Temecula Calif.), was administered daily i.p. at 100 mg/kg body weight as a 20 mg/ml slurry in 4% carboxymethylcellulose in 0.9% PBS daily for 3-days. Controls were treated with a daily injection of 4% carboxymethylcellulose in PBS. The animals were then subject to cutaneous challenge with MO and qualitative and quantitative assessment of Evans blue dye leakage into vascular stroma (FIG. 5A).

TGFβ1 = test: IP-Western of mature dimeric TGFβ1 in tissue lysates of treated mice; format: in vivo; details: lysates from Collα1(I)+/+ and Collα1(I)r/r mice treated with GM6001
Description: After incubation with protein agarose G or A beads (Roche) beads for an additional hour at 4° C., lysates bound to agarose beads were washed three times with HNTG buffer and bound proteins were eluted by boiling in 1× reduced SDS_PAGE sample buffer for 5-min and centrifuged at 13,000 rpm for 10-min. Tissue lysates (20 μg for LAP) or eluted immunoprecipitated complexes were separated by electrophoresis on 10% SDS-polyacrylamine gels, and transferred to nitrocellulous membranes overnight at 4° C. […] Membranes were then washed and developed by using an enhanced chemiluminescence kit (ECL, Amersham Biosciences). Biotinylated-LAP antibodies (R&D System BAF246, 1:1000), biotinylated anti-TGF-β 1 antibodies (R&D System BAF240, 1:1000) and antibodies to MMP14 (Oncogene Sciences 1M397, 1:1,000; Chemicon AB8104, 1:1000 were used for detection on membranes. For loading control in LAP western analysis, rat monoclonal antibody (AbCam YL1/2, 1:5,000) against o-tubulin and goat anti-rat-HRP (Pierce, 1:2000) antibodies were used.

MP activity = details: GM6001 i.p. 100 mg/kg, 20 mg/ml slurry in 4% CMC; cited from earlier work
[3] = control versus Colα1(I)r/r mice +/- mustard oil, p<0.03

SMILES	gelatinolytic activity in skin lysate [1]	Evans blue dye leakage into vascular stroma after MO, GM6001-treated versus vehicle-treated mice ([2]; Collα1(I)r/r mice)	Evans blue dye leakage into vascular stroma after MO, GM6001-treated versus vehicle-treated mice ([2]; control Collα1(I)+/+ mice)	effect of GM6001, fold increase (FIG. 5) [2, 3] [fold]	effect of GM6001, increase in % (FIG. 5) [2, 3] [%]	level of ~25 kDa dimeric mature form of TGFβ1 in tissue lysates (TGFβ1)	in vivo MP activity (MP activity)
c1cnc2c(c1)ccc1cccnc12 [1,10 phenanthroline]	completely inhibited	–	–	–	–	–	–
CNC(=O)[C@H](Cc1c[nH]c2ccccc12)NC(=O)[C@@H](CC(=O)NO)CC(C)C [GM6001]	–	significantly above vehicle-treated; also recorded: restored the appropriate acute vascular responses; also recorded: restores acute vascular responses	higher than that observed in MO-treated control mice receiving vehicle alone; also recorded: even more susceptible to MO-induced EB leakage; also recorded: hyper-sensitive to vascular leakage	1.8	54	markedly decreased; also recorded: reduced	inhibit in vivo MP activity
